20 compounds from patent EP3939664A1 (priority 2020, dated 2022) can be followed below.

Data set [1] relates to SARS-CoV-2. Briefly: Cell monolayer protection assay (crystal violet staining of virus-induced cell death). The arrangement: PC Max: unit: uM. The format is cell-based, SARS-CoV-2 stock strain NL/2020. As to conditions: for minimal effective concentration: Severe acute respiratory syndrome coronavirus 2, Vero C1008, minimum compound concentration protecting Vero-E6 cell monolayer from virus induced cell death, read-out: PC Min; for minimal effective concentration / PC Max: 72 hours, dilutions from 50µM to 780nM tested; for PC Max: maximum compound concentration protecting Vero-E6 cell monolayer from virus induced cell death.

The nature of data set [2]: in vitro. As to conditions: human, huh7-lunet#3 cells.
Data set [3] has as its system hCoV-229E-GFP virus (Human coronavirus 229E expressing Green Fluorescent Protein). As to the kind of experiment: microbe, parasite or virus in culture. Type of data set: cell-based. As to conditions: Huh7-Lunet#3 cells, 72 hours at 33°C, read-out: reduction of hCoV-229E-GFP propagation.
For data set [4], the system named is SARS-CoV-2. As to the kind of experiment: Relative viral RNA content by real time qPCR. The format is cell-based. As to conditions: for activity at 15 µM: Severe acute respiratory syndrome coronavirus 2, Vero C1008, 15µM compound, viral RNA by qPCR, relative to cells treated only with vehicle (DMSO). Background: Quantitative PCR measures a nucleic acid by following its amplification.

Turning to `CCCCc1ccc(-c2ccc3nc(-c4ccc(OC)cc4)cc(C(=O)O)c3c2)cc1` [Example 3, 6-(4-butylphenyl)-2-(4-methoxyphenyl)quinoline-4-carboxylic acid], in data set [1], the minimal effective concentration came to 50 µM and the “PC Max” value is recorded as 50.
For orientation: viability means a read-out of living cells in per cent, often relative to untreated cells. On to `COc1ccc(-c2cc(C(=O)O)c3cc(-c4ccc(C(C)(C)C)cc4)ccc3n2)cc1` [Example 4, 6-(4-(tert-butyl)phenyl)-2-(4-methoxyphenyl)quinoline-4-carboxylic acid], for which, in data set [1], the minimal effective concentration turned out to be 50 µM and the “PC Max” value was found to be 50. In data set [2], the viability at 72 h, 10 µM amounted to 107%. In addition, the inhibition at 10 µM in data set [3] came to 74%.
With `CCc1ccc(-c2ccc3nc(-c4ccccc4)cc(C(=O)O)c3c2)cc1` [Example 12, 6-(4-ethylphenyl)-2-phenylquinoline-4-carboxylic acid], in data set [1], the minimal effective concentration amounted to 50 µM and the “PC Max” value amounted to 50.
For the compound `CC(C)(C)c1ccc(-c2ccc3nc(-c4ccccc4)cc(C(=O)O)c3c2)cc1` [Example 14, 6-(4-(tert-butyl)phenyl)-2-phenylquinoline-4-carboxylic acid], in data set [1], the minimal effective concentration was 50 µM and the “PC Max” value came to 50.
On to `O=C(O)c1cc(-c2ccccc2)nc2ccc(-c3ccc(Cl)c(Cl)c3)cc12` [Example 16, 6-(3,4-dichlorophenyl)-2-phenylquinoline-4-carboxylic acid], for which, in data set [1], the minimal effective concentration is 50 µM and the “PC Max” value came to 50.
For `CCc1ccc(-c2ccc(-c3cc(C(=O)O)c4ccccc4n3)cc2)cc1` [Example 19, 2-(4'-ethyl-[1,1'-biphenyl]-4-yl)quinoline-4-carboxylic acid], in data set [1], the minimal effective concentration stood at 50 µM and the “PC Max” value was found to be 50.
Take `CCCCc1ccc(-c2ccc(-c3cc(C(=O)O)c4ccccc4n3)cc2)cc1` [Example 20, 2-(4'-butyl-[1,1'-biphenyl]-4-yl)quinoline-4-carboxylic acid]: in data set [1], the minimal effective concentration came out at 12.5 µM and the “PC Max” value is reported as 50. In addition, in data set [4], the “viral RNA levels by qPCR (result in words)” value (“viral RNA levels by qPCR” for short) is on record as “virtually undetectable levels” and the activity at 15 µM turned out to be 0.001%.
With `CC(C)(C)c1ccc(-c2ccc(-c3cc(C(=O)O)c4ccccc4n3)cc2)cc1` [Example 21, 2-(4'-(tert-butyl)-[1,1'-biphenyl]-4-yl)quinoline-4-carboxylic acid], the “protective activity against SARS-CoV-2 (result in words)” value in data set [1] (Figure 1, 0.78-50µM) is “comparable efficacy to remdesivir”. In data set [1], the minimal effective concentration amounted to 3.12 µM and the “PC Max” value stood at 50. In addition, in data set [4], the “viral RNA levels by qPCR” value was “virtually undetectable levels” and the activity at 15 µM was found to be 1e-05%.
As to `O=C(O)c1cc(-c2ccc(-c3ccc(Cl)c(Cl)c3)cc2)nc2ccccc12` [Example 23, 2-(3',4'-dichloro-[1,1'-biphenyl]-4-yl)quinoline-4-carboxylic acid], in data set [1], the minimal effective concentration was 50 µM and the “PC Max” value came to 50.
As to `O=C(O)c1cc(-c2ccc(-c3cccc(OC(F)(F)F)c3)cc2)nc2ccccc12` [Example 24, 2-(3'-(trifluoromethoxy)-[1,1'-biphenyl]-4-yl)quinoline-4-carboxylic acid], in data set [1], the minimal effective concentration came to 50 µM and the “PC Max” value was determined as 50.
As for `CCCCc1ccc(-c2cccc(-c3cc(C(=O)O)c4ccccc4n3)c2)cc1` [Example 27, 2-(4'-butyl-[1,1'-biphenyl]-3-yl)quinoline-4-carboxylic acid], in data set [1], the minimal effective concentration is 25 µM and the “PC Max” value worked out at 50.
The corresponding values for `CC(C)(C)c1ccc(-c2cccc(-c3cc(C(=O)O)c4ccccc4n3)c2)cc1` [Example 28, 2-(4'-(tert-butyl)-[1,1'-biphenyl]-3-yl)quinoline-4-carboxylic acid] are 25 µM and 50.
`CCCCc1ccc(-c2ccc3c(C(=O)O)cc(-c4ccc(OC)cc4)nc3c2)cc1` [Example 33, 7-(4-butylphenyl)-2-(4-methoxyphenyl)quinoline-4-carboxylic acid]: in data set [1], the minimal effective concentration worked out at 50 µM and the “PC Max” value came to 50.
For the compound `COc1ccc(-c2cc(C(=O)O)c3ccc(-c4ccc(C(C)(C)C)cc4)cc3n2)cc1` [Example 34, 7-(4-(tert-butyl)phenyl)-2-(4-methoxyphenyl)quinoline-4-carboxylic acid], in data set [1], the minimal effective concentration came out at 50 µM and the “PC Max” value is 50.
With `CCc1ccc(-c2cccc3c(C(=O)O)cc(-c4ccc(OC)cc4)nc23)cc1` [Example 42, 8-(4-ethylphenyl)-2-(4-methoxyphenyl)quinoline-4-carboxylic acid], in data set [1], the minimal effective concentration came out at 50 µM and the “PC Max” value is listed as 50.
As for `COc1ccc(-c2cc(C(=O)O)c3cccc(-c4ccc(C(C)(C)C)cc4)c3n2)cc1` [Example 44, 8-(4-(tert-butyl)phenyl)-2-(4-methoxyphenyl)quinoline-4-carboxylic acid], in data set [1], the minimal effective concentration stood at 12.5 µM and the “PC Max” value came out at 50. Besides, in data set [4], the “viral RNA levels by qPCR” value is recorded as “virtually undetectable levels” and the activity at 15 µM is 0.01%.
With `COc1ccc(-c2cc(C(=O)O)c3cccc(-c4ccc(Cl)c(Cl)c4)c3n2)cc1` [Example 46, 8-(3,4-dichlorophenyl)-2-(4-methoxyphenyl)quinoline-4-carboxylic acid], in data set [1], the minimal effective concentration came out at 50 µM and the “PC Max” value is reported as 50.
On to `COc1ccc(-c2cc(C(=O)O)c3cccc(-c4cccc(OC(F)(F)F)c4)c3n2)cc1` [Example 47, 2-(4-methoxyphenyl)-8-(3-(trifluoromethoxy)phenyl)quinoline-4-carboxylic acid], for which, in data set [1], the minimal effective concentration came to 50 µM and the “PC Max” value is reported as 50.
Turning to `CCCOc1ccc(-c2cccc3c(C(=O)O)cc(-c4ccc(OC)cc4)nc23)cc1` [Example 48, 2-(4-methoxyphenyl)-8-(4-propoxyphenyl)quinoline-4-carboxylic acid], in data set [1], the minimal effective concentration came to 50 µM and the “PC Max” value is listed as 50.
In the case of `CCC(CC)COC(=O)[C@H](C)N[P@](=O)(OC[C@H]1O[C@@](C#N)(c2ccc3c(N)ncnn23)[C@H](O)[C@@H]1O)Oc1ccccc1` [Remdesevir, remdesivir, reference compound], in data set [1], the minimal effective concentration stood at 0.78 µM and the “PC Max” value is reported as 50.
